The CheMixHub viscosity set

Assay: xn = mol fraction of the nth substance listed

ClCCl + COC(=O)OC
viscosity [mPa·s], 101.33 kPa
Details | x2 = 0.0957 | x2 = 0.2018 | x2 = 0.3029 | x2 = 0.3958 | x2 = 0.5009 | x2 = 0.5996 | x2 = 0.6992 | x2 = 0.7599 | x2 = 0.9005
298.15 K | 0.4 | 0.423 | 0.441 | 0.458 | 0.472 | 0.485 | 0.495 | 0.5 | 0.52
303.15 K | 0.384 | 0.4 | 0.419 | 0.431 | 0.447 | 0.461 | 0.47 | 0.478 | 0.49
308.15 K | 0.374 | 0.385 | 0.399 | 0.409 | 0.42 | 0.43 | 0.44 | 0.448 | 0.461

ClCCl + COC(C)=O
298.15 K, 101 kPa
Details | viscosity [mPa·s]
x1 = 0.1033 | 0.374
x1 = 0.1903 | 0.383
x1 = 0.2995 | 0.391
x1 = 0.4016 | 0.398
x1 = 0.5007 | 0.404
x1 = 0.5991 | 0.41
x1 = 0.7017 | 0.414
x1 = 0.8034 | 0.416
x1 = 0.9104 | 0.418

ClCCCl + COCCO
298 K, 101.33 kPa
Details | viscosity [mPa·s]
x2 = 0.1031 | 0.803
x2 = 0.1362 | 0.811
x2 = 0.2067 | 0.83
x2 = 0.2908 | 0.882
x2 = 0.395 | 0.954
x2 = 0.5147 | 1.059
x2 = 0.5965 | 1.138
x2 = 0.6926 | 1.232
x2 = 0.7409 | 1.28
x2 = 0.9141 | 1.458

ClCCl + COCCO
298.15 K, 101 kPa
Details | viscosity [mPa·s]
x2 = 0.1103 | 0.5177
x2 = 0.2181 | 0.5832
x2 = 0.3235 | 0.6707
x2 = 0.4266 | 0.7669
x2 = 0.5274 | 0.8908
x2 = 0.626 | 1.029
x2 = 0.7225 | 1.168
x2 = 0.817 | 1.295
x2 = 0.9095 | 1.428

ClCCl + COCCOCCOC
298.15 K, 101.33 kPa
Details | viscosity [mPa·s]
x2 = 0.097 | 0.546
x2 = 0.1505 | 0.593
x2 = 0.2008 | 0.636
x2 = 0.2942 | 0.711
x2 = 0.3997 | 0.79
x2 = 0.4508 | 0.817
x2 = 0.5008 | 0.843
x2 = 0.5555 | 0.87
x2 = 0.598 | 0.891
x2 = 0.6948 | 0.921
x2 = 0.7543 | 0.938
x2 = 0.8003 | 0.955
x2 = 0.8967 | 0.975
x2 = 0.9205 | 0.98

ClCCl + COCCOCCOCCOCCOC
298.15 K, 101 kPa
Details | viscosity [mPa·s]
x2 = 0.017 | 0.459
x2 = 0.0332 | 0.51
x2 = 0.0557 | 0.586
x2 = 0.0844 | 0.681
x2 = 0.1417 | 0.909
x2 = 0.1831 | 1.075
x2 = 0.236 | 1.294
x2 = 0.2842 | 1.492
x2 = 0.292 | 1.519
x2 = 0.3401 | 1.699
x2 = 0.38 | 1.848
x2 = 0.4698 | 2.155
x2 = 0.5134 | 2.334
x2 = 0.6018 | 2.651
x2 = 0.6882 | 2.749
x2 = 0.7367 | 2.865
x2 = 0.8029 | 2.981
x2 = 0.8758 | 3.111
x2 = 0.9066 | 3.17
x2 = 0.9339 | 3.239

ClCCl + COc1ccccc1
303.15 K, 101.3 kPa
Details | viscosity [mPa·s]
x2 = 0.069 | 0.425
x2 = 0.321 | 0.527
x2 = 0.357 | 0.54
x2 = 0.4045 | 0.567
x2 = 0.6109 | 0.665
x2 = 0.658 | 0.688
x2 = 0.8807 | 0.82

O=S(=O)(O)O + COc1ccccc1
viscosity [mPa·s], 101 kPa
Details | x1 = 0.0892 | x1 = 0.2274 | x1 = 0.5064 | x1 = 0.6238 | x1 = 0.6321 | x1 = 0.6494 | x1 = 0.679 | x1 = 0.7207 | x1 = 0.746 | x1 = 0.9241
293.15 K | 1.46 | 3.17 | 41.69 | 260.3 | 172.8 | 263.5 | 317.9 | 262.1 | 201.3 | 34.68
303.15 K | 1.35 | 1.79 | 30.05 | 166 | 100.8 | 141.3 | 182 | 151.4 | 131.3 | 22.53
313.15 K | 1.25 | 2 | 23.8 | 87.9 | 70.2 | 79.44 | 105 | 83.3 | 71.9 | 16.6
323.15 K | 1.15 | 2.58 | 17.8 | 72.9 | 42.1 | 47.4 | 83.18 | 50.18 | 44.8 | 11.9

CC1CCCC(C)C1=O (configuration not stated) + COc1ccccc1N
viscosity [mPa·s], 100 kPa
Details | x2 = 0.0997 | x2 = 0.1852 | x2 = 0.2554 | x2 = 0.3527 | x2 = 0.4551 | x2 = 0.5424 | x2 = 0.6519 | x2 = 0.7414 | x2 = 0.8479
303.15 K | 3.865 | 3.998 | 4.106 | 4.247 | 4.383 | 4.491 | 4.612 | 4.701 | 4.797
308.15 K | 3.412 | 3.557 | 3.673 | 3.825 | 3.972 | 4.09 | 4.227 | 4.325 | 4.435
313.15 K | 2.958 | 3.116 | 3.239 | 3.401 | 3.56 | 3.687 | 3.84 | 3.948 | 4.071

C1CCC2=[NH+]CCCN2CC1.c1c[n-]cn1 + CS(C)=O
298.15 K, 100 kPa
Details | viscosity [mPa·s]
x1 = 0.0998 | 3.113
x1 = 0.1996 | 4.415
x1 = 0.2995 | 6.054
x1 = 0.3994 | 8.104
x1 = 0.4994 | 10.52
x1 = 0.5994 | 13.65
x1 = 0.6995 | 17.39
x1 = 0.7996 | 22.07
x1 = 0.8998 | 27.44
